Experimental data from patent publication US6020374A, “Biologically active synthetic dye compounds” (priority 1998, dated 2000).

Experiments:
[1] = test system: MCF-7 cells; test: Cell death estimation, cycloheximide-exposed MCF-7 cells (trypan blue); format: cell-based
Method: Subconfluent cultures of MCF-7 cells in 35 mm dishes, were deprived of serum for 20 hours and then exposed to 30 μg/ml cycloheximide in the presence or absence of increasing concentrations of fractionated ATA, crude ATA or EB. After 48 hours, the cells were detached with trypsin. The medium and the detached cells were pooled and centrifuged at 1000×g for 10 mins. Cell viability was estimated by adding an equivalent volume of trypan blue solution to an aliquot of suspended cells. Stained and unstained cells were counted on a hemocytometer (10^3 cells were counted for each determination).
Subconfluent, 20 hours starved MCF-7 cells were exposed to 30 μg/ml
of cycloheximide in the presence of increasing
concentrations of fractionated ATA (0, 6, 12, 25, 50 μg/ml). After
48 hours, percent of dead cells was
determined as described under "Experimental procedures". In the
presence of cycloheximide only, 60-70% of
the cells were dead after 48 hours.
Cultures of […] cells were exposed to 30 μg CX for 48 hours in the presence of EB, ATA, IGF-1, or nothing.

[2] = test system: MAPK-1 (44 kDa) and MAPK-2 (42 kDa); test: Activation of MAPKs in MCF-7 cells (anti-active MAPK immunoblot); format: cell-based; conditions: 5 mins., ATA, EB each at 300 μg/ml, IGF-1 20 or 40 ng/ml
Method: FIG. 7 is the effect of ATA and EB on activation of MAPKs: MCF-7 cells were treated for 5 mins. with ATA, EB, each at 300 μg/ml, 20 ng/ml or 40 ng/ml IGF-1. Cell lysates, solubilized in Buffer C, were subjected to 12% SDS-PAGE and immunoblotted with an anti-active MAPK antibody. The membrane, after ECL detection, was stripped of bound antibody and blotted with an anti-MAPK antibody.
Nitrocellulose blots of proteins were incubated with the antibodies, and proteins were detected by enhanced chemiluminescence using horseradish peroxidase-labeled protein A, horseradish peroxidase-labeled anti rabbit IgG or horseradish peroxidase-labeled anti-mouse IgG.
The activated forms of MAPKs were detected by anti-active MAPK immunoblotting in the MCF-7 cell's lysates. […] Blotting with anti MAPKs antibodies confirms that similar amounts of MAPKs were present in treated and non-treated cells.

C[C@@H]1C[C@@H]([C@H](O)CC2CC(=O)NC(=O)C2)C(=O)[C@@H](C)C1 [CX, cycloheximide, reference compound]
Percent dead cells ([1]; CX only, 30 μg, 48 hours, Control without CX 10 ± 3): 56 ± 5%
cytotoxicity at 30 µg/mL ([1]; Homo sapiens, MCF7, 48 h, read-out: cells dead after 48 hours): 60 to 70%

CCCCCCCCCCCCCC(=O)O[C@@H]1[C@@H](C)[C@@]2(O)[C@@H](C=C(CO)C[C@]3(O)C(=O)C(C)=C[C@@H]23)[C@@H]2C(C)(C)[C@]12OC(C)=O [TPA, reference compound]
Phosphorylated (active) isoforms MAPK-1 and MAPK-2 [2]: clearly detected
